Experimental data as given in ChEMBL document CHEMBL1201862, “PubChem BioAssay data set” (2004).
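Cultured in 96-well plates, cells were exposed to test compound for 48 hours across five concentrations. GI50 = concentration required for 50% inhibition of growth.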 Active and inactive are the calls of the source. No stated cut-off is given here; in the data, active = GI50 up to about 1.1 µM and inactive = higher.

Tests used:
Test in all cases: NCI tumour cell line growth inhibition, 48 h
[1] = test system: A549
[2] = test system: COLO 205
[3] = test system: HCT-15
[4] = test system: HL-60
[5] = test system: HOP-92
[6] = test system: HT-29
[7] = test system: Hs-578T
[8] = test system: KM12
[9] = test system: M14
[10] = test system: MCF7
[11] = test system: MOLT-4
[12] = test system: OVCAR-3
[13] = test system: OVCAR-4
[14] = test system: PC-3
[15] = test system: RXF 393
[16] = test system: SK-MEL-5
[17] = test system: SNB-19
[18] = test system: IGROV-1
[19] = test system: T47D
[20] = test system: MDA-N

SMILES	GI50 [1]	GI50 [2]	GI50 [3] [µM]	GI50 [4]	GI50 [5]	GI50 [6]	GI50 [7]	GI50 [8]	GI50 [9]	GI50 [10]	GI50 [11]	GI50 [12]	GI50 [13]	GI50 [14]	GI50 [15]	GI50 [16]	GI50 [17]	GI50 [18]	GI50 [19]	GI50 [20]
Cc1ccc(S(=O)(=O)NC(=O)Nc2nnc(S(N)(=O)=O)s2)cc1	> 100 µM (inactive)	> 100 µM (inactive)	> 100	> 100 µM (inactive)	> 100 µM (inactive)	> 100 µM (inactive)	> 100 µM (inactive)	> 100 µM (inactive)	> 100 µM (inactive)	> 100 µM (inactive)	> 100 µM (inactive)	> 100 µM (inactive)	> 100 µM (inactive)	> 100 µM (inactive)	> 100 µM (inactive)	> 100 µM (inactive)	> 100 µM (inactive)	–	–	–
N#Cc1c(N)n(C2OC(CO)C(O)C2O)c2ncnc(N)c12 (configuration not stated)	0.119 µM (active)	0.0329 µM (active)	0.0277	–	0.136 µM (active)	0.0288 µM (active)	0.144 µM (active)	0.0417 µM (active)	0.0617 µM (active)	0.0168 µM (active)	0.0248 µM (active)	0.029 µM (active)	0.049 µM (active)	0.0245 µM (active)	0.153 µM (active)	0.0653 µM (active)	0.129 µM (active)	0.22 µM (active)	0.0403 µM (active)	–
O=C1OC2C(O)C(=O)OC2C1O (configuration not stated)	> 100 µM (inactive)	> 100 µM (inactive)	> 100	> 100 µM (inactive)	> 100 µM (inactive)	> 100 µM (inactive)	–	> 100 µM (inactive)	> 100 µM (inactive)	> 100 µM (inactive)	> 100 µM (inactive)	> 100 µM (inactive)	> 100 µM (inactive)	> 100 µM (inactive)	> 100 µM (inactive)	> 100 µM (inactive)	> 100 µM (inactive)	> 100 µM (inactive)	> 100 µM (inactive)	> 100 µM (inactive)
COc1ccc(C[C@@H]2CN(C(=O)c3ccccc3)[C@H](Cc3ccc(O)cc3)CN2C(=O)c2ccccc2)cc1Br	> 100 µM (inactive)	> 100 µM (inactive)	> 100	> 100 µM (inactive)	> 100 µM (inactive)	> 100 µM (inactive)	> 100 µM (inactive)	> 100 µM (inactive)	> 100 µM (inactive)	> 100 µM (inactive)	> 100 µM (inactive)	> 100 µM (inactive)	> 100 µM (inactive)	55.2 µM (inactive)	–	–	> 100 µM (inactive)	> 100 µM (inactive)	> 100 µM (inactive)	–
O=C1CC[C@@]2(O)[C@H]3Cc4ccc(-c5ccccc5)c5c4[C@@]2(CCN3CC2CC2)[C@H]1O5	20.6 µM (inactive)	17.7 µM (inactive)	16.8	17.9 µM (inactive)	16.2 µM (inactive)	13.7 µM (inactive)	–	18.9 µM (inactive)	17.6 µM (inactive)	18.2 µM (inactive)	18.6 µM (inactive)	18.1 µM (inactive)	35.9 µM (inactive)	19 µM (inactive)	9.66 µM (inactive)	14.2 µM (inactive)	25.5 µM (inactive)	27.2 µM (inactive)	17 µM (inactive)	16.4 µM (inactive)
CCOc1ccc(NCc2cc(OC)c(OC)c(OC)c2)cc1	1.68 µM (inactive)	0.495 µM (active)	0.303	0.463 µM (active)	6.04 µM (inactive)	0.407 µM (active)	1.11 µM (active)	0.319 µM (active)	0.425 µM (active)	0.455 µM (active)	0.822 µM (active)	0.388 µM (active)	40.1 µM (inactive)	1.96 µM (inactive)	–	0.578 µM (active)	2.88 µM (inactive)	2.4 µM (inactive)	–	–
